These are literature values, as cited in article PMC4703502 (Pharmacology & therapeutics, 2015).

Where two headings read alike, the source gives them in different places.

For series [1], the system named is spermatogenesis.
For series [2], the system named is inhibin B. The conditions noted are these: in vivo; ref Tash et al., 2008a.
The test system of series [3] is fertility. The conditions noted are these: ref Tash et al., 2008.
In series [4] the test system is spermatozoa. The conditions noted are these: ref O’Rand & Widgren, 2012.

For `CC1(C)CC=C(c2cnc3ccccc3c2)c2cc(C(=O)Nc3ccc(C(=O)O)cc3)ccc21` [BMS-195614], the effect on spermatogenesis entry in series [1] (tested in vivo, ref Chung et al., 2013) is on record as “no effect”.

Turning to `O=C(O)/C=C/c1nn(Cc2ccc(Cl)cc2Cl)c2cc(C(F)(F)F)ccc12` [Gamendazole], the “serum levels of inhibin B” value in series [2] is “fall below measurable levels”. In series [3] (daily treatment with 6 mg/kg during 7 days), the fertility recovery was 29%. For the same molecule, in series [3] (rats, 3 mg/kg single oral dose), the fertility recovery entry is on record as “complete recovery” and the infertility result was “not complete infertility”.

For `O=C(NCCCCCCCCNC(=O)C(Cl)Cl)C(Cl)Cl` [WIN 18,446], the effect on spermatogenesis result in series [1] (ref Amory et al., 2011) is “completely stops spermatogenesis”.

For the molecule BMS-189453, the effect on spermatogenesis result in series [1] (ref Chung et al., 2011) was “inhibit spermatogenesis”.

B1: SEMG1: semenogelin, seminal plasma protein that binds EPPIN on the sperm surface (protein, UniProt P04279 24-462, looked up)
Semenogelin-1: QKGGSKGRLPSEFSQFPHGQKGQHYSGQKGKQQTESKGSFSIQYTYHVDANDHDQSRKSQQYDLNALHKTTKSQRHLGGSQQLLHNKQEGRDHDKSKGHFHRVVIHHKGGKAHRGTQNPSQDQGNSPSGKGISSQYSNTEERLWVHGLSKEQTSVSGAQKGRKQGGSQSSYVLQTEELVANKQQRETKNSHQNKGHYQNVVEVREEHSSKVQTSLCPAHQDKLQHGSKDIFSTQDELLVYNKNQHQTKNLNQDQQHGRKANKISYQSSSTEERRLHYGENGVQKDVSQSSIYSQTEEKAQGKSQKQITIPSQEQEHSQKANKISYQSSSTEERRLHYGENGVQKDVSQRSIYSQTEKLVAGKSQIQAPNPKQEPWHGENAKGESGQSTNREQDLLSHEQKGRHQHGSHGGLDIVIIEQEDDSDRHLAQHLNNDRNPLFT
Take B1: the “decrease in internal calcium levels” value in series [4] (3μM SEMG1) is on record as greater than 30%. The “time to decrease in internal pH” value in series [4] (SEMG1 bound to EPPIN on the sperm surface) is “less than 1 minute”.
